Source: patent US20220395476A1, “DRUG FOR TREATING ARTERY-RELATED DISEASES, AND USE THEREOF” (SHANGHAI INSTITUTE OF MATERIA MEDICA, CHINESE ACADEMY OF …, priority 2019, published 2022)

How the values were obtained:
[1] = tested on: aneurysm induced by porcine pancreatic elastase in C57BL/6 mice; assay: Aneurysm model induced by porcine pancreatic elastase (PPE model); format: in vivo, mouse; conditions: for diameter of aneurysms: 20 mg/kg intraperitoneal injection from Day 5 for 10 days
Protocol: (§1) The mouse was anesthetized by intraperitoneal injection of 1% pentobarbital sodium at the dose of 20 mg/kg. After the mouse entering anesthesia state, the abdominal hair was shaved off with a razor and further thoroughly depilated with depilatory cream. The abdomen was dried and the mouse was fixed on the operating table. Its body temperature was kept with a heating pad under the body. The abdominal skin was wiped with iodine and deiodined with 75% ethanol. An incision of about 1.5 cm was cut in the middle of the abdomen. The organs were carefully pushed away with tweezers. Then the intestine was divided to the left and right sides with gauze wetted with 3% penicillin-streptomycin. The connective tissue and muscle tissue on the surface of the aorta were carefully separated with tweezers to fully expose the abdominal aorta.
(§2) Sterilized absorbent paper (0.3 cm×0.3 cm) was fully infiltrated in porcine pancreatic elastase (PPE), and then applied on the exposed abdominal aorta for 50 minutes. A gauze wetted with normal saline containing 3% penicillin-streptomycin was placed on the abdominal incision to prevent the abdominal water from excessive loss. After 50 minutes, the absorbent paper on the aorta was carefully taken away. The abdominal cavity was rinsed with normal saline containing 3% penicillin-streptomycin. The peritoneum and skin were sutured with ⅜ suture needle and 5/0 suture line. After suturing, the wound was wiped with iodine and deiodined with 75% ethanol after 1 min. The mouse was placed into a clean feeding cage and can eat and drink freely.
(§3) Sample Fixation, Dehydration, Paraffin Embedding and Slicing 100 ml of formaldehyde, 4 g of sodium dihydrogen phosphate and 6.5 g of disodium hydrogen phosphate were dissolved in 900 ml of distilled water to prepare a polyoxymethylene fixed solution with a volume ratio of 10%. The aortic tissue was fixed in polyoxymethylene fixation solution for 72 hours, then washed with tap water for 4-6 hrs and placed in the dehydrator. The program was set for automatic dehydration, with 75% ethanol for 1.5 hours, 95% ethanol for 1.5 hours, 100% ethanol for 1.5 hours, dimethylbenzene for 1.5 hours and paraffin for 1.5 hours, successively. The paraffin embedding machine was opened 2 hours in advance to melt paraffin, and the temperature was controlled at 60° C. After the paraffin was melted, the dehydrated aortic tissue was embedded in paraffin. It was poured into the embedding box, and the paraffin soaked tissue block was placed into the embedding frame using heated tweezers and gently moved to the cold table. The paraffin block was taken off for slicing after the paraffin was solidified. Before slicing, the paraffin block was put into refrigerator for pre-cooling. After cooling, the paraffin block was cut into continuous 5 μM-thick paraffin sections using the slicer. The sections were unfolded on warm water at 38° C. in a slide spreader, fished with slides coated with APES, and dried naturally for subsequent histopathological staining.
The tissue was fixed, embedded and cut into 4 μM paraffin sections. […]

[2] = tested on: aneurysms, intramural hematomas and arterial dissections induced by porcine pancreatic elastase and 1% β-aminopropionitrile in C57BL/6 mice; assay: Aneurysm, intramural hematoma and arterial dissection model induced by porcine pancreatic elastase and 1% β-aminopropionitrile (PPE+BAPN model); format: in vivo, mouse; conditions: for histological analysis of the vessel wall: Day 15
Protocol: as §1
as §2, with “away. And the” for “away. The”, “feeding cage, fed with 1% β-aminopropionitrile (BAPN) feed” for “feeding cage”, “freely. The feed was changed every other day.” for “freely.”
as §3
The tissue was fixed, embedded and cut into 4 μM paraffin sections. The paraffin sections were firstly baked (65° C., 60 minutes), and then dewaxed to aqueous phase (dimethylbenzene for 15 minutes→absolute ethanol for 5 minutes→95% ethanol for 5 minutes→75% ethanol for 5 minutes→running water for 1 minute); stained with hematoxylin for 15 minutes and then rinsed with running water for 4 minutes; differentiated with 1% ethanol hydrochloride for 5 seconds (the differentiation time was adjusted according to the preparation time of differentiation solution) and rinsed with running water for 5 minutes; then stained with eosin for 1 minute and placed in water for 1 minute; dehydrated and then permeated with dimethylbenzene (75% ethanol for 5 minutes→95% ethanol for 5 minutes→absolute ethanol for 5 minutes→dimethylbenzene for 15 minutes) and sealed with neutral gum.

[3] = evaluated Day 15, vs model control
[4] = 100 mg/kg intraperitoneal injection from Day 5 for 10 days
[5] = 100 mg/kg intraperitoneal injection from Day 5 for 10 days, evaluated Day 15
[6] = 100 mg/kg intragastric administration from Day 5 for 10 days, evaluated Day 15
[7] = 50 mg/kg orally via gavage from Day 5 for 10 days, evaluated Day 15

Compound	histological analysis of the vessel wall [2, 4]	diameter / expansion of aneurysm (maximum blood vessel diameter of arteriopathy site) [2, 5]	occurrence of intramural hematoma and arterial dissection [2, 5]	other results
O=C(O)/C=C/c1ccc(O)c(O)c1 [Caffeic acid]				diameter of aneurysms [1, 3]: significantly reduced the diameter and expansion of aneurysm in mouse (P<0.01)
Cc1ccc(C(C)C)cc1O [Carvacrol]	reduced the thickness of vessel wall and protected the integrity of vessel structure	significantly reduced the diameter of infrarenal aneurysm in mouse (P<0.001)	reduced the occurrence of infrarenal aneurysm, intramural hematoma and arterial dissection in mouse	
O=c1ccc2ccccc2o1 [Coumarin]				diameter of infrarenal aneurysm [2, 6]: significantly reduced the diameter of infrarenal aneurysm in mouse
O=C(O)[C@H](O)Cc1ccc(O)c(O)c1 [Danshensu]				diameter of aneurysms [1, 3]: significantly reduced the diameter and expansion of aneurysm (P<0.01)
C=CCc1ccc(O)c(OC)c1 [Eugenol]		significantly reduced the diameter of infrarenal aneurysm in mouse (P<0.01)	reducing the occurrence of infrarenal artery intramural hematoma and arterial dissection and the arterial rupture in mouse	diameter of infrarenal aneurysm [2, 6]: significantly reduced the diameter of infrarenal aneurysm in mouse (P<0.001); occurrence of infrarenal artery intramural hematoma and arterial dissection [2, 6]: reducing the occurrence of infrarenal artery intramural hematoma and arterial dissection in mouse
COc1cc(/C=C/C(=O)O)ccc1O [Ferulic acid]	protected the integrity of vessel structure, inhibited the degradation of elastic layer, inhibited the occurrence of intramural hematoma	significantly reduced the expansion of aneurysm in mouse (P<0.001)	significantly reduced the occurrence of intramural hematoma and arterial dissection, and the arterial rupture in mouse	diameter of aneurysms [1, 3]: significantly reduce the diameter of aneurysms in mouse (P<0.001)
COC(=O)[C@@H](Cc1ccc(O)c(O)c1)OC(=O)/C=C/c1ccc(O)c(O)c1 [Methyl rosmarinate]	reduced the thickness of vessel wall and protected the integrity of vessel structure		significantly reduced the occurrence of infrarenal aneurism, intramural hematoma and arterial dissection in mouse	
COc1ccc(C(C)=O)c(O)c1 [Paeonol]	reduced the thickness of vessel wall and protected the integrity of vessel structure	significantly reduced the diameter of infrarenal aneurysm in mouse (P<0.001)	reduced the occurrence of infrarenal artery intramural hematoma and arterial dissection in mouse	
O=C(/C=C/c1ccc(O)c(O)c1)OCCc1ccccc1 [Phenethyl caffeate]	reduced the thickness of vessel wall and protected the integrity of vessel structure	significantly reduced the diameter of artery expansion in mouse (P<0.01)	significantly reduced the occurrence of intramural hematoma and arterial dissection, and the arterial rupture in mouse	diameter of infrarenal aneurysms ([1]; 100 mg/kg orally via gavage from Day 5 for 10 days, evaluated Day 15, vs model control): significantly reduced the diameter of infrarenal aneurysms in mouse (P<0.001)
COc1cc(/C=C/C(=O)O)ccc1O [Piperazine ferulate, reference compound]				histological analysis of the vessel wall ([2]; 50 mg/kg orally via gavage from Day 5 for 10 days): reduced the thickness of vessel wall and protected the integrity of vessel structure; expansion of arteries (maximum blood vessel diameter) [2, 7]: significantly reduced the expansion of arteries in mouse (P<0.001); occurrence of aneurysm, intramural hematoma and arterial dissection [2, 7]: significantly reduced the occurrence of aneurysm, intramural hematoma and arterial dissection
COc1cc2ccc(=O)oc2cc1O [Scopoletin]				diameter of infrarenal aneurysm [2, 6]: significantly reduced the diameter of infrarenal aneurysm in mouse
CC(C)(C)C(=O)Oc1ccc(S(=O)(=O)Nc2ccccc2C(=O)NCC(=O)[O-])cc1.[Na+] [Sivelestat sodium, reference compound]				PPE + BAPN (protective effect) ([2]; aneurysm model induced by porcine pancreatic elastase and 1% β-aminopropionitrile, mouse): ineffective; PPE (protective effect) ([1]; aneurysm model induced by porcine pancreatic elastase, mouse): ineffective
O=C(O)/C=C/c1ccc(O)cc1 [p-Coumaric acid]				diameter of infrarenal aneurysm [2, 6]: significantly reduced the diameter of infrarenal aneurysm in mouse
Aspirin eugenol ester	reduced the thickness of vessel wall and protected the integrity of vessel structure		significantly reduced the occurrence of infrarenal artery intramural hematoma and arterial dissection in mouse (P<0.001)	
